The source of these data is article PMC8280112, “Substrate reduction therapy for Krabbe disease and metachromatic leukodystrophy using a novel ceramide galactosyltransferase inhibitor” (Scientific Reports, 2021).

Usually IC50 stands for the concentration at which inhibition is half-maximal. The term AUC(0-inf) denotes total exposure, with the tail of the curve extrapolated. Low readings indicate low exposure, high ones high exposure. Usually AUC(0-t) stands for the area under the concentration-time curve up to a stated or last time point. Low values mean low exposure, high ones high exposure. Broadly, the Cmax is the highest concentration seen after dosing. The term Tmax denotes the time from dosing to the highest level.

Where “and” joins values, the source holds several entries; their conditions need not be identical. Equal entries are not always repeated. Where two headings read alike, the source gives them in different places.

Series [1] addresses T1, CGT in CHO cells stably expressing human UGT8 (Homo sapiens, UniProt Q16880).
T1 construct: expressed in transfected cells; host or cells: CHO cells stably expressing human UGT8
T1 sequence (Q16880 21-541): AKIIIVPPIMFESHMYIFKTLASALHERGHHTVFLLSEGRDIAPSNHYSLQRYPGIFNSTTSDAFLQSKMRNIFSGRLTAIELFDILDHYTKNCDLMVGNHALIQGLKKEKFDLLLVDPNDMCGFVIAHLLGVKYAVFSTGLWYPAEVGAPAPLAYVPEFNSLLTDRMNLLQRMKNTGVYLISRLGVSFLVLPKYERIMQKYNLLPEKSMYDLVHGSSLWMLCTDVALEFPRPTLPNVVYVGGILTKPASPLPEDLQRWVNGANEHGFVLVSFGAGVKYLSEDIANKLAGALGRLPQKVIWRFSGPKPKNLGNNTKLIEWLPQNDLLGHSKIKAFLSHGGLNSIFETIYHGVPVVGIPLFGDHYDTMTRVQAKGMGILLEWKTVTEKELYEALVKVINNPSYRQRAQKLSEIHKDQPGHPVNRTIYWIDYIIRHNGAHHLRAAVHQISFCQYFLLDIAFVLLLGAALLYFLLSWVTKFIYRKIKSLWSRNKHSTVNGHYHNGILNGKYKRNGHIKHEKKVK
Nature of the series: CGT cellular assay (intact-cell assay). The format is cell-based. As to the method:
3 × 10^4 CHO cells stably expressing human UGT8 were seeded in a 96-well TC plate in F12K + 10% FBS (Invitrogen, qualified, Australia, 10099141) and incubated at 37 °C, 5% CO2 overnight. Media was removed and compounds, diluted in F12K + 5% FBS (0.1% DMSO final) containing 1 µM eliglustat to prevent NBD-glucosylceramide formation, were added to the cells and incubated 2 h at 37 °C. NDB-(2R-OH)-C6-ceramide (BioMarin) in F12K + 5% FBS + 11% BSA was added to a final substrate concentration of 10 µM in 1% BSA and incubated 1 h at 37 °C before extracting in methanol/0.5% acetic acid containing N-dodecanoyl-NBD-galactosylceramide IS (1 µM). After 2 h shaking, the solution was centrifuged at 4000 rpm for 30 min, and 80 µL of supernatant was transferred to 40 µL H2O, mixed and centrifuged at 4000 rpm for 10 min. NDB-(2R-OH)-C6-galactosylceramide product was quantified by a Shimadzu ultra-fast liquid chromatography system (Shimadzu) coupled to an API 4000 mass spectrometer in ESI negative mode (Applied Biosystems) using a Kinetex C18 column (50 × 2.1 mm, 2.6 µm, 100 Å) (Phenomenex) with 0.1% formic acid and acetonitrile supplemented with 0.1% formic acid.

The target of series [2] is T2, Recombinant human glucosylceramidase (GBA1) (Homo sapiens, UniProt P04062).
T2 construct: purchased R&D Systems
T2 sequence (P04062 40-536): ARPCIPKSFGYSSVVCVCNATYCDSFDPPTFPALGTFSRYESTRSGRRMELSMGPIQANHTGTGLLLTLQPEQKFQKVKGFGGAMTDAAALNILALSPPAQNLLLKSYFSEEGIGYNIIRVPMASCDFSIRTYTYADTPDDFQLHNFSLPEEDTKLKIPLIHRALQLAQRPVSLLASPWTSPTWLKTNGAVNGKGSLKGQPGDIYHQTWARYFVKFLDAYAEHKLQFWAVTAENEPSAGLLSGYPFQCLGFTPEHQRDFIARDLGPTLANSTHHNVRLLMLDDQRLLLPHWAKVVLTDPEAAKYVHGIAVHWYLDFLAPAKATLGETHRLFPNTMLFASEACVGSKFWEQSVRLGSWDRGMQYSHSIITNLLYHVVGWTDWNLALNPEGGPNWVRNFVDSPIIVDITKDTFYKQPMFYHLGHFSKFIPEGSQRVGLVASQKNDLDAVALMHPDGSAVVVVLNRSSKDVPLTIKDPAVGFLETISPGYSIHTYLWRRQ
The series can be described thus: Beta-glucocerebrosidase assay. The format is biochemical.

The target of a further series is T3, CB1 receptor (Homo sapiens, UniProt P21554).
T3 construct: purchased Eurofin Cerep ITEM G012
T3 sequence (P21554 whole entry): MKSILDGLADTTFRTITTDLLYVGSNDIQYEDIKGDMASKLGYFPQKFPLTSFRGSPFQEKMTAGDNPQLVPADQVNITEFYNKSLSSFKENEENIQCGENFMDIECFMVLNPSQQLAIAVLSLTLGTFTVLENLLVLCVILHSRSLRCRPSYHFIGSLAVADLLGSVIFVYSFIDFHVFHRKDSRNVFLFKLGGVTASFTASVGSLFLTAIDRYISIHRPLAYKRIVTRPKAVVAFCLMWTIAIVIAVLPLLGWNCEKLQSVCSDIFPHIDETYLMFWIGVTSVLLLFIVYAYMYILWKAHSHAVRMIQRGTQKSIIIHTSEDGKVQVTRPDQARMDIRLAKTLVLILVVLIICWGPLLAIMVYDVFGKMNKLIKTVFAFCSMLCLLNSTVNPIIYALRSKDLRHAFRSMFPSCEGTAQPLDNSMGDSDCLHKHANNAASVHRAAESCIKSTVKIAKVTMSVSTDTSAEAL
Nature of the series: CB1R activity (Eurofin Cerep). Type of series: cell-based. The procedure: CB1R activity was evaluated at Eurofin Cerep, Le Bois l'Evêque, France ITEM […].

Series [3] is described as follows: Mouse pharmacokinetics and brain concentration. Type of series: in vivo. Conditions: C57BL/6 mice, single 20 mg/kg IP injection, plasma. The procedure: Blood was collected in K2 EDTA tube to obtain a plasma sample (2000g, 5 min at 4 °C). The brain was removed, rinsed with cold saline, dried on filter paper, weighed, and snap frozen by placing on dry ice. Brains were homogenized in 3 volumes of PBS (pH 7.4) by mini-bead-beater before sample extraction for bioanalysis. […] Pharmacokinetic parameters were calculated using WinNonlin V 8.2 statistics software (Pharsight Corporation).

The subject of a further series is Twitcher mice. Nature of the series: Twitcher mouse survival. The format is in vivo. The note with it: for median survival: IP three times per week. The procedure:
Mice heterozygous for the Twitcher mutation on the congenic C57BL/6 background were originally purchased from The Jackson Laboratories (stock #000845). Homozygous GALC −/− animals were generated from heterozygous mating. Genotypes were determined on PND1 by PCR as previously described[43],[44]. Animals that died prior to weaning on PND28 were excluded from the study unless otherwise noted. Animals were euthanized when they became moribund as defined by any of the following: losing 25% of their maximal body weight, ataxia severe enough to impair ability to eat or drink, or lack of response to tactile stimulus. Animals used for tissue collection were euthanized by anesthetic overdose and perfused transcardially with PBS for three min. Animals for lifespan analysis were euthanized using CO2 compressed gas delivered at 10–30% chamber volume displacement per min. […] Tissues were harvested and flash frozen in liquid nitrogen.

With `C[C@H]1N(c2ccc(Br)cc2)C(=O)N(c2ccc(Br)cc2)C1(O)c1cccc(OC(F)(F)F)c1` (some centres unmarked) [S202], the IC50 in series [1] is 2 nM and 3.6 nM and 3 nM; in series [2] it was above 50000 nM; on CB1 receptor (antagonist mode, read-out: CB1R antagonist IC50), 2900 nM; on CB1 receptor (inverse agonist mode, read-out: CB1R inverse agonist IC50), 2100 nM; on CB1 receptor (read-out: CB1 receptor IC50), 3000 nM. For the same compound, the “potency as a CB1 inverse agonist, change through optimization of S221” value on CB1 receptor (S202 relative to S221) is listed as “reduced tenfold”. In series [3], the AUC(0-inf) was determined as 83800 ng·h/mL. This compound also displayed an area under the curve AUC(0-t) in series [3] of 59400 ng·h/mL. Besides, in series [3], the Cmax was 8500 ng/mL. Besides, the Tmax in series [3] is 1 h. The half-life in series [3] (read-out: Terminal t1/2 (converted)) was 12.2 h. Further, the median survival is 60 days with Twitcher mice (PND3 start, 0.15 mg/kg) and ~ 63 days in the series with Twitcher mice (PND15 start, 5.0 mg/kg). In the series with Twitcher mice (PND3 start, highest dose tested (1.5 mg/kg)), the effect on lifespan entry is listed as “reduced lifespan”.
